Reference: the supplement of paper PMC10307832

Experiments:
Assay in all cases: relative viability (nuclei count vs DMSO), 5 days (fraction); higher = more cells survive
A-427 = tested on: A-427
Outline: (§1)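 Lung cancer cell lines in 1536-well plates were dosed by pin tool the day after seeding, either with one drug alone or with a fixed anchor-drug dose plus five library-drug doses (not always all listed) in √10 steps. After 5 days, cells were fixed and their nuclei stained in one step (final 0.05% Triton X-100, 1% formaldehyde, 1 ug/ml Hoechst), then counted on 4× images. Relative viability is the nuclei count in treated wells divided by that in vehicle wells. Values are medians of duplicate plates.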

COR-L23 = tested on: COR-L23
Outline: as §1

ChaGo-K-1 = tested on: ChaGo-K-1
Outline: as §1

EMC-BAC-2 = tested on: EMC-BAC-2
Outline: as §1

HARA = tested on: HARA
Outline: as §1

HCC-15 = tested on: HCC-15
Outline: as §1

HCC-366 = tested on: HCC-366
Outline: as §1

HCC-78 = tested on: HCC-78
Outline: as §1

LC-2-ad = tested on: LC-2-ad
Outline: as §1

LK-2 = tested on: LK-2
Outline: as §1

NCI-H1650 = tested on: NCI-H1650
Outline: as §1

NCI-H1734 = tested on: NCI-H1734
Outline: as §1

NCI-H1793 = tested on: NCI-H1793
Outline: as §1

NCI-H1944 = tested on: NCI-H1944
Outline: as §1

NCI-H1993 = tested on: NCI-H1993
Outline: as §1

NCI-H2009 = tested on: NCI-H2009
Outline: as §1

NCI-H2023 = tested on: NCI-H2023
Outline: as §1

NCI-H2228 = tested on: NCI-H2228
Outline: as §1

NCI-H23 = tested on: NCI-H23
Outline: as §1

NCI-H2405 = tested on: NCI-H2405
Outline: as §1

NCI-H838 = tested on: NCI-H838
Outline: as §1

SK-LU-1 = tested on: SK-LU-1
Outline: as §1

UMC-11 = tested on: UMC-11
Outline: as §1

## C[C@@H]1CN(CC(=O)Nc2ccc3c(c2)Cc2cccc(-c4cc(=O)cc(N5CCOCC5)o4)c2S3)C[C@H](C)O1 + CC1(C)CCC(c2ccc(Cl)cc2)=C(CN2CCN(c3ccc(C(=O)NS(=O)(=O)c4ccc(N[C@H](CCN5CCOCC5)CSc5ccccc5)c(S(=O)(=O)C(F)(F)F)c4)cc3)CC2)C1 [Navitoclax] (partner 0.5 µM)
A-427; first compound 0.04 µM
  relative viability: 0.988
A-427; first compound 0.1265 µM
  relative viability: 0.982
A-427; first compound 0.4 µM
  relative viability: 0.983
A-427; first compound 4 µM
  relative viability: 0.967
COR-L23; first compound 0.04 µM
  relative viability: 1.25
COR-L23; first compound 0.1265 µM
  relative viability: 0.985
COR-L23; first compound 0.4 µM
  relative viability: 1.17
COR-L23; first compound 4 µM
  relative viability: 0.962
ChaGo-K-1; first compound 0.1265 µM
  relative viability: 0.933
ChaGo-K-1; first compound 0.4 µM
  relative viability: 0.956
ChaGo-K-1; first compound 4 µM
  relative viability: 0.936
EMC-BAC-2; first compound 0.04 µM
  relative viability: 1.16
EMC-BAC-2; first compound 0.1265 µM
  relative viability: 1.12
EMC-BAC-2; first compound 0.4 µM
  relative viability: 1.17
EMC-BAC-2; first compound 4 µM
  relative viability: 1.09
HARA; first compound 0.04 µM
  relative viability: 1.2
HARA; first compound 0.1265 µM
  relative viability: 1.12
HARA; first compound 0.4 µM
  relative viability: 1.21
HARA; first compound 4 µM
  relative viability: 1.14
HCC-15; first compound 0.04 µM
  relative viability: 0.7
HCC-15; first compound 0.1265 µM
  relative viability: 0.639
HCC-15; first compound 0.4 µM
  relative viability: 0.682
HCC-15; first compound 4 µM
  relative viability: 0.556
HCC-366; first compound 0.04 µM
  relative viability: 1.04
HCC-366; first compound 0.1265 µM
  relative viability: 1.08
HCC-366; first compound 0.4 µM
  relative viability: 1.15
HCC-366; first compound 4 µM
  relative viability: 0.944
HCC-78; first compound 0.04 µM
  relative viability: 0.668
HCC-78; first compound 0.1265 µM
  relative viability: 0.706
HCC-78; first compound 0.4 µM
  relative viability: 0.69
HCC-78; first compound 4 µM
  relative viability: 0.914
LC-2-ad; first compound 0.04 µM
  relative viability: 0.587
LC-2-ad; first compound 0.1265 µM
  relative viability: 0.46
LC-2-ad; first compound 0.4 µM
  relative viability: 0.336
LC-2-ad; first compound 4 µM
  relative viability: 0.29
LK-2; first compound 0.1265 µM
  relative viability: 0.83
LK-2; first compound 0.4 µM
  relative viability: 0.831
LK-2; first compound 4 µM
  relative viability: 1.02
NCI-H1650; first compound 0.04 µM
  relative viability: 1.25
NCI-H1650; first compound 0.1265 µM
  relative viability: 1.09
NCI-H1650; first compound 0.4 µM
  relative viability: 1.38
NCI-H1650; first compound 4 µM
  relative viability: 0.969
NCI-H1734; first compound 0.04 µM
  relative viability: 0.783
NCI-H1734; first compound 0.1265 µM
  relative viability: 0.886
NCI-H1734; first compound 0.4 µM
  relative viability: 0.808
NCI-H1734; first compound 4 µM
  relative viability: 0.923
NCI-H1793; first compound 0.04 µM
  relative viability: 0.495
NCI-H1793; first compound 0.1265 µM
  relative viability: 0.341
NCI-H1793; first compound 0.4 µM
  relative viability: 0.322
NCI-H1793; first compound 4 µM
  relative viability: 0.377
NCI-H1944; first compound 0.1265 µM
  relative viability: 1.02
NCI-H1944; first compound 0.4 µM
  relative viability: 1.11
NCI-H1944; first compound 4 µM
  relative viability: 1.06
NCI-H1993; first compound 0.04 µM
  relative viability: 0.933
NCI-H1993; first compound 0.1265 µM
  relative viability: 0.868
NCI-H1993; first compound 0.4 µM
  relative viability: 0.644
NCI-H1993; first compound 4 µM
  relative viability: 0.865
NCI-H2009; first compound 0.04 µM
  relative viability: 1.17
NCI-H2009; first compound 0.1265 µM
  relative viability: 1.1
NCI-H2009; first compound 0.4 µM
  relative viability: 1.15
NCI-H2009; first compound 4 µM
  relative viability: 0.915
NCI-H2023; first compound 0.04 µM
  relative viability: 0.993
NCI-H2023; first compound 0.1265 µM
  relative viability: 0.921
NCI-H2023; first compound 0.4 µM
  relative viability: 0.923
NCI-H2023; first compound 4 µM
  relative viability: 0.796
NCI-H2228; first compound 0.04 µM
  relative viability: 1.02
NCI-H2228; first compound 0.1265 µM
  relative viability: 1.11
NCI-H2228; first compound 0.4 µM
  relative viability: 0.639
NCI-H2228; first compound 4 µM
  relative viability: 0.753
NCI-H23; first compound 0.04 µM
  relative viability: 1
NCI-H23; first compound 0.1265 µM
  relative viability: 1.03
NCI-H23; first compound 0.4 µM
  relative viability: 0.708
NCI-H23; first compound 4 µM
  relative viability: 0.668
NCI-H2405; first compound 0.04 µM
  relative viability: 1.02
NCI-H2405; first compound 0.1265 µM
  relative viability: 1.1
NCI-H2405; first compound 0.4 µM
  relative viability: 0.866
NCI-H2405; first compound 4 µM
  relative viability: 0.872
NCI-H838; first compound 0.04 µM
  relative viability: 1.17
NCI-H838; first compound 0.1265 µM
  relative viability: 1.16
NCI-H838; first compound 0.4 µM
  relative viability: 1.07
NCI-H838; first compound 4 µM
  relative viability: 0.896
SK-LU-1; first compound 0.04 µM
  relative viability: 0.761
SK-LU-1; first compound 0.1265 µM
  relative viability: 0.969
SK-LU-1; first compound 0.4 µM
  relative viability: 0.956
SK-LU-1; first compound 4 µM
  relative viability: 0.637
UMC-11; first compound 0.04 µM
  relative viability: 0.32
UMC-11; first compound 0.1265 µM
  relative viability: 0.288
UMC-11; first compound 0.4 µM
  relative viability: 0.301
UMC-11; first compound 4 µM
  relative viability: 0.229
